Key:
[1] = system: rats with d-galactosamine-induced acute hepatitis; assay: D-galactosamine-induced acute hepatitis in rats, serum GOT and GPT; type: in vivo; settings: rat serum 24 h after d-galactosamine i.p. (500 mg/kg); test substance oral × 3, dose per group as in Table 3; N = 5
Procedure: The liver enzymes were dramatically released to the blood stream when the hepatocyte was damaged, and thus the serum GOT and GPT values increased. […] In other words, the restoration effects of the extracts on the damaged liver were evaluated through comparing the GOT and GPT variations before and after a treatment of the extracts.
Five male rats were divided in each group, each rat with body weight about 200±20 g. […] The reference group was orally given guanine (300 mg/kg). Half an hour later, each group was i.p. with d-galactosamine (500 mg/kg), except the control group. Four and eight hours after first injection, test substances were administered orally again at the same dose. After 24 hours, the animals were sacrificed, and the blood was collected from the carotid arteries. The serum was separated and incubated at room temperature for 10 minutes, and then centrifuged (Backman centrifuge, GS-6R, 3000 rpm) for another 10 minutes. The activities of rat serum GOT (Glutamyl Oxaloacetic Transaminase) and GPT (Glutamyl Pyrubic Transaminase) were measured.

B type hepatitis = settings: treating B type hepatitis; cited from earlier work

Compound	GOT [1] [U/L]	GPT [1] [U/L]	positive response (B type hepatitis) [%]
Nc1nc2nc[nH]c2c(=O)[nH]1 [Guanine, guanine]	1024.8 ± 91.1	602.4 ± 61.7	–
interferon	–	–	20
